# Test results published in EP3915971A1, “PHENYL-S(O)N-PHENYLAMIDINES AND THE USE THEREOF AS FUNGICIDES” (Bayer Aktiengesellschaft, priority 2020, dated 2021).
# Experiment: LogP measurement by HPLC on reversed phase columns (EEC directive 79/831 Annex V.A8)
# Type: physicochemical
# Settings: method [a]: LC-UV, acidic range, 0.1% formic acid in water and acetonitrile as eluent (linear gradient 10% to 95% acetonitrile)
# Experimental: Measurement of LogP values was performed according to EEC directive 79/831 Annex V.A8 by HPLC (High Performance Liquid Chromatography) on reversed phase columns with the following methods: • ^[a] LogP value is determined by measurement of LC-UV, in an acidic range, with 0.1% formic acid in water and acetonitrile as eluent (linear gradient from 10% acetonitrile to 95% acetonitrile). • ^[b] LogP value is determined by measurement of LC-UV, in a neutral range, with 0.001 molar ammonium acetate solution in water and acetonitrile as eluent (linear gradient from 10% acetonitrile to 95% acetonitrile). • ^[c] LogP value is determined by measurement of LC-UV, in an acidic range, with 0.1% phosphoric acid and acetonitrile as eluent (linear gradient from 10% acetonitrile to 95% acetonitrile).
# If more than one LogP value is available within the same method, all the values are given and separated by "+". […]
row,chromatographic logP,Compound
1,0.78,"CCN(C)C=Nc1cc(C)c([S+]([O-])c2ccccc2F)cc1C (centres unmarked) [Example I-011, N-ethyl-N'-[4-(2-fluorophenyl)sul6nyl-2,5-dimethylphenyl]-N-methylmethanimidamide]"

# Same assay, conditions: reversed phase HPLC columns, method [a]: LC-UV, acidic range, 0.1% formic acid in water and acetonitrile as eluent (linear gradient 10% to 95% acetonitrile)
row,Compound,chromatographic logP
1,"CCN(C)C=Nc1cc(C)c(S(=O)(=O)c2ccccc2)cc1C [Example I-004, N'-[4-(benzenesulfonyl)-2,5-dimethylphenyl]-N-ethyl-N-methylmethanimidamide]",1
2,"CCN(C)C=Nc1cc(C)c([S+]([O-])c2ccccc2C)cc1Cl (centres unmarked) [Example I-012, N'-[2-chloro-5-methyl-4-(2-methylphenyl)sulfinylphenyl]-N-ethyl-N-methylmethanimidamide]",0.97
3,"CCN(C)C=Nc1cc(C)c([S+]([O-])c2ccccc2Cl)cc1Cl (centres unmarked) [Example I-013, N'-[2-chloro-4-(2-chlorophenyl)sulfinyl-5-methylphenyl]-N-ethyl-N-methylmethanimidamide]",1.15
4,"CCN(C)C=Nc1cc(C)c([S+]([O-])c2ccccc2F)cc1Cl (centres unmarked) [Example I-014, N'-[2-chloro-4-(2-fluorophenyl)sulfinyl-5-methylphenyl]-N-ethyl-N-methylmethanimidamide]",0.94
5,"CCN(C)C=Nc1cc(C)c(S(=O)(=O)c2ccccc2C)cc1Cl [Example I-015, N'-[2-chloro-5-methyl-4-(2-methylphenyl)sulfonylphenyl]-N-ethyl-N-methylmethanimidamide]",1.69
6,"CCN(C)C=Nc1cc(C)c(S(=O)(=O)c2ccccc2C)cc1C [Example I-016, N'-[2,5-dimethyl-4-(2-methylphenyl)sulfonylphenyl]-N-ethyl-N-methylmethanimidamide]",1.18
7,"CCN(C)C=Nc1cc(C)c(S(=O)(=O)c2ccccc2F)cc1C [Example I-017, N-ethyl-N'-[4-(2-fluorophenyl)sulfonyl-2,5-dimethylphenyl]-N-methylmethanimidamide]",1.07
8,"CCN(C)C=Nc1cc(C)c(S(=O)(=O)c2ccccc2Cl)cc1Cl [Example I-018, N'-[2-chloro-4-(2-chlorophenyl)sulfonyl-5-methylphenyl]-N-ethyl-N-methylmethanimidamide]",2.02
9,"CCN(C)C=Nc1cc(C)c(S(=O)(=O)c2ccccc2F)cc1Cl [Example I-019, N'-[2-chloro-4-(2-fluorophenyl)sulfonyl-5-methylphenyl]-N-ethyl-N-methylmethanimidamide]",1.84
10,"CCN(C)C=Nc1cc(F)c(S(=O)(=O)c2ccccc2)cc1C [Example I-027, N'-[4-(benzenesulfonyl)-5-fluoro-2-methylphenyl]-N-ethyl-N-methylmethanimidamide]",1.18
11,"CCN(C)C=Nc1cc(F)c(S(=O)(=O)c2ccccc2C)cc1C [Example I-028, N-ethyl-N'-[5-fluoro-2-methyl-4-(2-methylphenyl)sulfonylphenyl]-N-methylmethanimidamide]",1.42
12,"CCN(C)C=Nc1cc(F)c(S(=O)(=O)c2ccccc2Cl)cc1C [Example I-029, N'-[4-(2-chlorophenyl)sulfonyl-5-fluoro-2-methylphenyl]-N-ethyl-N-methylmethanimidamide]",1.45
13,"CCN(C)C=Nc1cc(Cl)c(S(=O)(=O)c2ccccc2C)cc1C [Example I-034, N'-[5-chloro-2-methyl-4-(2-methylphenyl)sulfonylphenyl]-N-ethyl-N-methylmethanimidamide]",1.5
14,"CCN(C)C=Nc1cc(Cl)c(S(=O)(=O)c2ccccc2)cc1C [Example I-048, N'-[4-(benzenesulfonyl)-5-chloro-2-methylphenyl]-N-ethyl-N-methylmethanimidamide]",1.31
15,"CCN(C)C=Nc1cc(C)c(S(=O)(=O)c2ccccc2C#N)cc1C [Example I-049, N'-[4-(2-cyanophenyl)sulfonyl-2,5-dimethylphenyl]-N-ethyl-N-methylmethanimidamide]",1
16,"CCN(C)C=Nc1cc(Cl)c(S(=O)(=O)c2ccccc2C#N)cc1C [Example I-053, N'-[5-chloro-4-(2-cyanophenyl)sulfonyl-2-methylphenyl]-N-ethyl-N-methylmethanimidamide]",1.31
17,"CCN(C)C=Nc1cc(C#N)c(S(=O)(=O)c2ccccc2C)cc1C [Example I-059, N'-[5-cyano-2-methyl-4-(2-methylphenyl)sulfonylphenyl]-N-ethyl-N-methylmethanimidamide]",1.8
18,"CCN(C)C=Nc1cc(C)c([S+]([O-])c2ccccc2C)cc1Br (centres unmarked) [Example I-063, N'-[2-bromo-5-methyl-4-(2-methylphenyl)sulfinylphenyl]-N-ethyl-N-methylmethanimidamide]",1.15

# Further lines, results first:
row,chromatographic logP,Compound
1,0.97,"CCN(C)C=Nc1cc(C)c([S+]([O-])c2ccccc2Cl)cc1C (centres unmarked) [Example I-010, N'-[4-(2-chlorophenyl)sulfinyl-2,5-dimethylphenyl]-N-ethyl-N-methylmethanimidamide]"
2,1.03,"CCN(C)C=Nc1cc(Cl)c([S+]([O-])c2ccccc2F)cc1C (centres unmarked) [Example I-030, N'-[5-chloro-4-(2-fluorophenyl)sulfinyl-2-methylphenyl]-N-ethyl-N-methylmethanimidamide]"
3,0.78,"CCN(C)C=Nc1cc(F)c([S+]([O-])c2ccccc2)cc1C (centres unmarked) [Example I-031, N'-[4-(benzenesulfinyl)-5-fluoro-2-methylphenyl]-N-ethyl-N-methylmethanimidamide]"
4,1,"CCN(C)C=Nc1cc(F)c([S+]([O-])c2ccccc2C)cc1C (centres unmarked) [Example I-032, N-ethyl-N'-[5-fluoro-2-methyl-4-(2-methylphenyl)sulfinylphenyl]-N-methylmethanimidamide]"
5,1.12,"CCN(C)C=Nc1cc(F)c([S+]([O-])c2ccccc2Cl)cc1C (centres unmarked) [Example I-033, N'-[4-(2-chlorophenyl)sulfinyl-5-fluoro-2-methylphenyl]-N-ethyl-N-methylmethanimidamide]"
6,1.12,"CCN(C)C=Nc1cc(Br)c([S+]([O-])c2ccccc2C)cc1C (centres unmarked) [Example I-035, N'-[5-bromo-2-methyl-4-(2-methylphenyl)sulfinylphenyl]-N-ethyl-N-methylmethanimidamide]"
7,1.26,"CCN(C)C=Nc1cc(Br)c([S+]([O-])c2ccccc2Cl)cc1C (centres unmarked) [Example I-036, N'-[5-bromo-4-(2-chlorophenyl)sulfinyl-2-methylphenyl]-N-ethyl-N-methylmethanimidamide]"
8,1.1,"CCN(C)C=Nc1cc(Cl)c([S+]([O-])c2ccccc2C)cc1C (centres unmarked) [Example I-037, N'-[5-chloro-2-methyl-4-(2-methylphenyl)sulfinylphenyl]-N-ethyl-N-methylmethanimidamide]"
9,1,"CCN(C)C=Nc1cc(Br)c([S+]([O-])c2ccccc2)cc1C (centres unmarked) [Example I-038, N'-[4-(benzenesulfinyl)-5-bromo-2-methylphenyl]-N-ethyl-N-methylmethanimidamide]"
10,1.23,"CCN(C)C=Nc1cc(Cl)c([S+]([O-])c2ccccc2Cl)cc1C (centres unmarked) [Example I-040, N'-[5-chloro-4-(2-chlorophenyl)sulfinyl-2-methylphenyl]-N-ethyl-N-methylmethanimidamide]"
11,1.1,"CCN(C)C=Nc1cc(Br)c([S+]([O-])c2ccccc2F)cc1C (centres unmarked) [Example I-043, N'-[5-bromo-4-(2-fluorophenyl)sulfinyl-2-methylphenyl]-N-ethyl-N-methylmethanimidamide]"
12,0.97,"CCN(C)C=Nc1cc(Cl)c([S+]([O-])c2ccccc2)cc1C (centres unmarked) [Example I-050, N'-[4-(benzenesulfinyl)-5-chloro-2-methylphenyl]-N-ethyl-N-methylmethanimidamide]"
13,0.87,"CCN(C)C=Nc1cc(Cl)c([S+]([O-])c2ccccc2C#N)cc1C (centres unmarked) [Example I-051, N'-[5-chloro-4-(2-cyanophenyl)sulfinyl-2-methylphenyl]-N-ethyl-N-methylmethanimidamide]"
14,1.53,"CCN(C)C=Nc1cc(C#N)c(S(=O)(=O)c2ccccc2)cc1C [Example I-055, N'-[4-(benzenesulfonyl)-5-cyano-2-methylphenyl]-N-ethyl-N-methylmethanimidamide]"
15,0.87,"CCN(C)C=Nc1cc(C#N)c([S+]([O-])c2ccccc2)cc1C (centres unmarked) [Example I-056, N'-[4-(benzenesulfinyl)-5-cyano-2-methylphenyl]-N-ethyl-N-methylmethanimidamide]"
16,1.28,"CCN(C)C=Nc1cc(C#N)c([S+]([O-])c2ccccc2C)cc1C (centres unmarked) [Example I-057, N'-[5-cyano-2-methyl-4-(2-methylphenyl)sulfinylphenyl]-N-ethyl-N-methylmethanimidamide]"
17,1.27,"CCN(C)C=Nc1cc(C#N)c([S+]([O-])c2ccccc2Cl)cc1C (centres unmarked) [Example I-061, N'-[4-(2-chlorophenyl)sulfinyl-5-cyano-2-methylphenyl]-N-ethyl-N-methylmethanimidamide]"
18,1.84,"CCN(C)C=Nc1cc(C#N)c(S(=O)(=O)c2ccccc2Cl)cc1C [Example I-062, N'-[4-(2-chlorophenyl)sulfonyl-5-cyano-2-methylphenyl]-N-ethyl-N-methylmethanimidamide]"
19,0.93,"CCN(C)C=Nc1cc(Br)c([S+]([O-])c2ccccc2C#N)cc1C (centres unmarked) [Example I-064, N'-[5-bromo-4-(2-cyanophenyl)sulfinyl-2-methylphenyl]-N-ethyl-N-methylmethanimidamide]"
